Values of other authors in patent US6509043B1, “Composition comprising soy protein, dietary fibres and a phytoestrogen compound and use thereof in the prevention and/or treatment of pulmonary diseases” (Nutri Pharma ASA, priority 2001, dated 2003).

System: estrogenic effect
Conditions: in vitro; reported by Knight (Maturitas 22, 167-175 (1995))

Q: With `O=c1c(-c2ccc(O)cc2)coc2cc(O)ccc12` [daidzein] as the compound, how does the “relative estrogenic potency as compared to estradiol (relative potency of 100)” value read?
A: 0.013
